{"source": "patent US4189349A", "about": "“α,δ-Diaminoacid and its lactam” (Rhone-Poulenc Industries, priority 1977, dated 1980)", "key": {"Candida albicans": {"system": "Candida albicans", "test": "Anti-fungal activity in vivo, generalised candidosis in mice", "parameters": "species or system Candida albicans in mice", "details": "orally or subcutaneously, between 25 mg/kg and 200 mg/kg per day for 4 consecutive days"}, "bacteria": {"system": "bacteria", "test": "Bacteriostatic activity towards bacteria", "type": "cell-based"}, "Epidermophyton floccosum": {"system": "Epidermophyton floccosum", "test": "Anti-fungal activity in vitro by dilution method", "type": "cell-based", "details": "95 to 100% inhibition, read-out: Minimum active concentration (AC 95-100)", "procedure": "(§1) Anti-fungal activity in vitro: The anti-fungal activity of 32232 RP and of 35391 RP towards a certain number of fungi has been determined by one of the dilution methods usually employed for this purpose. For each fungus, the smallest concentration of active substance which, under defined conditions, causes 95 to 100% inhibition of the fungus (AC 95-100) was determined. The results of the various determinations are summarised in Table III below, where the minimum active concentrations are expressed in micrograms of substance per cc. of test medium."}, "Rhizopus nigricans": {"system": "Rhizopus nigricans", "test": "Anti-fungal activity in vitro by dilution method", "type": "cell-based", "details": "Rhizopus stolonifer, 95 to 100% inhibition, read-out: Minimum active concentration (AC 95-100)", "procedure": "as §1"}, "Saccharomyces cerevisiae": {"system": "Saccharomyces cerevisiae", "test": "Anti-fungal activity in vitro by dilution method", "type": "cell-based", "details": "95 to 100% inhibition, read-out: Minimum active concentration (AC 95-100)", "procedure": "as §1"}, "Microsporum canis": {"system": "Microsporum canis", "test": "Anti-fungal activity in vitro by dilution method", "type": "cell-based", "details": "95 to 100% inhibition, read-out: Minimum active concentration (AC 95-100)", "procedure": "as §1"}, "Candida albicans Pa 1": {"system": "Candida albicans Pa 1", "test": "Anti-fungal activity in vitro by dilution method", "type": "cell-based", "details": "PA1, 95 to 100% inhibition, read-out: Minimum active concentration (AC 95-100)", "procedure": "as §1"}, "Hansenula anomala": {"system": "Hansenula anomala", "test": "Anti-fungal activity in vitro by dilution method", "type": "cell-based", "details": "95 to 100% inhibition, read-out: Minimum active concentration (AC 95-100)", "procedure": "as §1"}, "[1]": {"system": "Trichophyton mentagrophytes", "test": "Anti-fungal activity in vitro by dilution method", "type": "cell-based", "details": "95 to 100% inhibition, read-out: Minimum active concentration (AC 95-100)", "procedure": "as §1"}, "[2]": {"system": "Saccharomyces pastorianus", "test": "Anti-fungal activity in vitro by dilution method", "type": "cell-based", "details": "95 to 100% inhibition, read-out: Minimum active concentration (AC 95-100)", "procedure": "as §1"}, "Aspergillus fumigatus": {"system": "Aspergillus fumigatus", "test": "Anti-fungal activity in vitro by dilution method", "type": "cell-based", "details": "95 to 100% inhibition, read-out: Minimum active concentration (AC 95-100)", "procedure": "as §1"}, "[3]": {"system": "Saccharomyces ellipsoideus", "test": "Anti-fungal activity in vitro by dilution method", "type": "cell-based", "details": "95 to 100% inhibition, read-out: Minimum active concentration (AC 95-100)", "procedure": "as §1"}, "Penicillium digitatum": {"system": "Penicillium digitatum", "test": "Anti-fungal activity in vitro by dilution method", "type": "cell-based", "details": "95 to 100% inhibition, read-out: Minimum active concentration (AC 95-100)", "procedure": "as §1"}, "Candida albicans Hi 7": {"system": "Candida albicans Hi 7", "test": "Anti-fungal activity in vitro by dilution method", "type": "cell-based", "details": "HI7, 95 to 100% inhibition, read-out: Minimum active concentration (AC 95-100)", "procedure": "as §1"}, "[4]": {"test": "Anti-fungal activity in vitro by dilution method", "type": "cell-based", "details": "Trichophyton rubrum; 95 to 100% inhibition; Microsporum rubrum; read-out: Minimum active concentration (AC 95-100)", "procedure": "as §1"}, "Mucor corymbifer": {"system": "Mucor corymbifer", "test": "Anti-fungal activity in vitro by dilution method", "type": "cell-based", "details": "Lichtheimia corymbifera, 95 to 100% inhibition, read-out: Minimum active concentration (AC 95-100)", "procedure": "as §1"}, "Botrytis cinerea": {"system": "Botrytis cinerea", "test": "Anti-fungal activity in vitro by dilution method", "type": "cell-based", "details": "95 to 100% inhibition, read-out: Minimum active concentration (AC 95-100)", "procedure": "as §1"}, "Candida albicans IP 200": {"system": "Candida albicans IP 200", "test": "Anti-fungal activity in vitro by dilution method", "type": "cell-based", "details": "IP200, 95 to 100% inhibition, read-out: Minimum active concentration (AC 95-100)", "procedure": "as §1"}, "Candida krusei IP 208": {"system": "Candida krusei IP 208", "test": "Anti-fungal activity in vitro by dilution method", "type": "cell-based", "details": "Pichia kudriavzevii, IP208, 95 to 100% inhibition, read-out: Minimum active concentration (AC 95-100)", "procedure": "as §1"}, "Aspergillus niger": {"system": "Aspergillus niger", "test": "Anti-fungal activity in vitro by dilution method", "type": "cell-based", "details": "95 to 100% inhibition, read-out: Minimum active concentration (AC 95-100)", "procedure": "as §1"}, "Fusarium oxysporum": {"system": "Fusarium oxysporum", "test": "Anti-fungal activity in vitro by dilution method", "type": "cell-based", "details": "95 to 100% inhibition, read-out: Minimum active concentration (AC 95-100)", "procedure": "as §1"}, "Blastomyces dermatitidis": {"system": "Blastomyces dermatitidis", "test": "Anti-fungal activity in vitro by dilution method", "type": "cell-based", "details": "95 to 100% inhibition, read-out: Minimum active concentration (AC 95-100)", "procedure": "as §1"}, "Toxicity in mice": {"test": "Toxicity in mice", "details": "mouse, in vivo; mice, oral; read-out: 50% lethal dose (LD50)"}, "[5]": {"test": "Potentiometric titration of an aqueous solution", "type": "physicochemical", "details": "water", "from_the_text": "The potentiometric equivalent is about 390.\nThe potentiometric equivalent is about 400.\nThe potentiometric equivalent is about 370."}, "[6]": {"test": "Solubility (French Pharmacopoeia terms / in water)", "type": "physicochemical", "procedure": "32232 RP and 35391 RP are of particular interest because of their activity on fungi and yeasts. 32232 RP, in the form of the internal salt, is characterised by the following physical properties:\nSolubility: 35391 RP is soluble in water at the rate of about 10 mg/cc."}, "mice": {"system": "mice", "test": "Toxicity in mice", "details": "mouse, in vivo, 1000 mg/kg"}, "[7]": {"details": "0.1M hydrochloric acid, read-out: apparent pKa of basic group"}}, "note": "Where two headings read alike, the source gives them in different places."}
{"smiles": "Nc1ncnc2c1ncn2C1OC(CC(N)CCC(N)C(=O)O)C(O)C1O", "note": "(stereo not drawn) [32232 RP]", "values": [{"measurement": "Anti-fungal activity in vivo against generalised candidosis", "setting": "Candida albicans", "result": "particularly active"}, {"measurement": "bacteriostatic activity towards bacteria", "setting": "bacteria", "result": "generally devoid of bacteriostatic activity"}, {"measurement": "MIC", "setting": "Epidermophyton floccosum", "result": "> 500", "unit": "µg/mL"}, {"measurement": "MIC", "setting": "Rhizopus nigricans", "result": "> 500", "unit": "µg/mL"}, {"measurement": "MIC", "setting": "Saccharomyces cerevisiae", "result": 0.3, "unit": "µg/mL"}, {"measurement": "MIC", "setting": "Microsporum canis", "result": "> 500", "unit": "µg/mL"}, {"measurement": "MIC", "setting": "Candida albicans Pa 1", "result": 3, "unit": "µg/mL"}, {"measurement": "MIC", "setting": "Hansenula anomala", "result": 2, "unit": "µg/mL"}, {"measurement": "MIC", "setting": "[1]", "result": "> 500", "unit": "µg/mL"}, {"measurement": "MIC", "setting": "[2]", "result": 0.3, "unit": "µg/mL"}, {"measurement": "MIC", "setting": "Aspergillus fumigatus", "result": "> 500", "unit": "µg/mL"}, {"measurement": "MIC", "setting": "[3]", "result": 0.9, "unit": "µg/mL"}, {"measurement": "MIC", "setting": "Penicillium digitatum", "result": 15, "unit": "µg/mL"}, {"measurement": "MIC", "setting": "Candida albicans Hi 7", "result": 5, "unit": "µg/mL"}, {"measurement": "MIC", "setting": "[4]", "result": "> 500", "unit": "µg/mL"}, {"measurement": "MIC", "setting": "Mucor corymbifer", "result": "> 500", "unit": "µg/mL"}, {"measurement": "MIC", "setting": "Botrytis cinerea", "result": "> 500", "unit": "µg/mL"}, {"measurement": "MIC", "setting": "Candida albicans IP 200", "result": 5, "unit": "µg/mL"}, {"measurement": "MIC", "setting": "Candida krusei IP 208", "result": 4, "unit": "µg/mL"}, {"measurement": "MIC", "setting": "Aspergillus niger", "result": "> 500", "unit": "µg/mL"}, {"measurement": "MIC", "setting": "Fusarium oxysporum", "result": "> 500", "unit": "µg/mL"}, {"measurement": "MIC", "setting": "Blastomyces dermatitidis", "result": 5, "unit": "µg/mL"}, {"measurement": "LD50", "setting": "Toxicity in mice", "result": "> 1000", "unit": "mg/kg"}, {"measurement": "pKa", "setting": "[5]; [7]", "result": 8.1}, {"measurement": "pKa", "setting": "[5]; 0.1M sodium hydroxide, read-out: apparent pKa of weak acid group", "result": 9.8}, {"measurement": "Solubility", "setting": "[6]; in acetone, internal salt, French Pharmacopoeia", "result": "virtually insoluble"}, {"measurement": "Solubility", "setting": "[6]; in dimethylformamide, internal salt, French Pharmacopoeia", "result": "very slightly soluble"}, {"measurement": "Solubility", "setting": "[6]; in methanol, internal salt, French Pharmacopoeia", "result": "very slightly soluble"}, {"measurement": "Solubility", "setting": "[6]; in water, internal salt, French Pharmacopoeia", "result": "easily soluble"}]}
{"smiles": "Nc1ncnc2c1ncn2C1OC(CC2CCC(N)C(=O)N2)C(O)C1O", "note": "(stereo not drawn) [35391 RP]", "values": [{"measurement": "Anti-fungal activity in vivo against generalised candidosis", "setting": "Candida albicans", "result": "particularly active"}, {"measurement": "bacteriostatic activity towards bacteria", "setting": "bacteria", "result": "generally devoid of bacteriostatic activity"}, {"measurement": "MIC", "setting": "Epidermophyton floccosum", "result": 250, "unit": "µg/mL"}, {"measurement": "MIC", "setting": "Rhizopus nigricans", "result": "> 500", "unit": "µg/mL"}, {"measurement": "MIC", "setting": "Saccharomyces cerevisiae", "result": 10, "unit": "µg/mL"}, {"measurement": "MIC", "setting": "Microsporum canis", "result": 300, "unit": "µg/mL"}, {"measurement": "MIC", "setting": "Candida albicans Pa 1", "result": 40, "unit": "µg/mL"}, {"measurement": "MIC", "setting": "Hansenula anomala", "result": 35, "unit": "µg/mL"}, {"measurement": "MIC", "setting": "[1]", "result": 350, "unit": "µg/mL"}, {"measurement": "MIC", "setting": "[2]", "result": 7, "unit": "µg/mL"}, {"measurement": "MIC", "setting": "Aspergillus fumigatus", "result": "> 500", "unit": "µg/mL"}, {"measurement": "MIC", "setting": "[3]", "result": 15, "unit": "µg/mL"}, {"measurement": "MIC", "setting": "Penicillium digitatum", "result": 25, "unit": "µg/mL"}, {"measurement": "MIC", "setting": "Candida albicans Hi 7", "result": 75, "unit": "µg/mL"}, {"measurement": "MIC", "setting": "[4]", "result": 300, "unit": "µg/mL"}, {"measurement": "MIC", "setting": "Mucor corymbifer", "result": "> 500", "unit": "µg/mL"}, {"measurement": "MIC", "setting": "Botrytis cinerea", "result": "> 500", "unit": "µg/mL"}, {"measurement": "MIC", "setting": "Candida albicans IP 200", "result": 70, "unit": "µg/mL"}, {"measurement": "MIC", "setting": "Candida krusei IP 208", "result": 60, "unit": "µg/mL"}, {"measurement": "MIC", "setting": "Aspergillus niger", "result": "> 500", "unit": "µg/mL"}, {"measurement": "MIC", "setting": "Fusarium oxysporum", "result": "> 500", "unit": "µg/mL"}, {"measurement": "MIC", "setting": "Blastomyces dermatitidis", "result": 60, "unit": "µg/mL"}, {"measurement": "Toxicity", "setting": "mice", "result": "non-toxic"}, {"measurement": "pKa", "setting": "[5]; [7]", "result": 7.7}, {"measurement": "Solubility", "setting": "[6]; in water, read-out: Solubility", "result": "~10000", "unit": "µg/mL"}]}
